Counter-ions that a name gives are not always drawn.
Test: in vitro
Settings: rat, gh3-tre-luc cells, AC50 (uM) modified / 1000
In the case of `CC(C)CCCCCCOC(=O)C1CCCCC1C(=O)OCCCCCCC(C)C` (stereo not shown) [Diisononyl cyclohexane-1,2-dicarboxylate], the CC50 at 24 h is reported as over 90 µM. `COc1cc2c(cc1N)oc1ccccc12` [2-Methoxy-3-aminodibenzofuran] gave a CC50 at 24 h of over 90 µM. In the case of `CC(=O)Nc1cc(S(=O)(=O)O)cc2cc(S(=O)(=O)O)c(N=Nc3ccccc3)c(O)c12` [C.I. Acid Red 1], the CC50 at 24 h is reported as 53.1 µM. Compound `CNC[C@@H]1CC[C@@H](N)[C@@H](O[C@H]2[C@H](O)[C@@H](O[C@H]3OC[C@](C)(O)[C@H](NC)[C@H]3O)[C@H](N)C[C@@H]2N)O1` [Micronomicin sulfate] has a CC50 at 24 h of over 50 µM. Compound `COC(C)(OC)OC` [1,1,1-Trimethoxyethane] has a CC50 at 24 h of over 90 µM. Compound `CNC(=O)C(c1ccccc1)c1ccccc1` [N-methyl-alpha-phenylbenzeneacetamide] has a CC50 at 24 h of over 90 µM. For `CCC(=O)/C=C/c1ccc(OC)cc1` [1-(4-Methoxyphenyl)-1-pentene-3-one], the CC50 at 24 h was over 90 µM. Compound `CN1CCN(c2c(F)cc3c(=O)c(C(=O)O)cn4c3c2OCN4C)CC1` [Marbofloxacin] has a CC50 at 24 h of over 50 µM. For `CCCOC(=O)c1ccccc1O` [Propyl salicylate], the CC50 at 24 h was over 50 µM. Compound `OCc1ccc(Cl)cc1Cl` [2,4-Dichlorobenzyl alcohol] has a CC50 at 24 h of over 90 µM. In the case of `CC(=O)Nc1ccc(/C=N/NC(N)=S)cc1` [Amithiozone], the CC50 at 24 h is reported as over 50 µM. For `CC(C)=CCC/C(C)=C/C(=O)O` [Geranic acid], the CC50 at 24 h was over 90 µM. With `CCc1ccc(C=O)cc1` [4-Ethylbenzaldehyde] the CC50 at 24 h was over 90 µM. For `CC1(C)C(=O)C(C)(C)C1=O` [2,2,4,4-Tetramethylcyclobutane-1,3-dione], the CC50 at 24 h was over 90 µM. Work on `C[C@]12C=CC(=O)C=C1CC[C@H]1[C@@H]3C[C@@H](O)[C@](O)(C(=O)CO)[C@@]3(C)C[C@H](O)[C@@]12F` [Triamcinolone] yielded a CC50 at 24 h of over 90 µM. `C=CCSSCC=C` [Diallyl disulfide] showed a CC50 at 24 h of over 90 µM. With `CC(=O)OCC(=O)NCCCOc1cccc(CN2CCCCC2)c1` [Roxatidine acetate hydrochloride] the CC50 at 24 h was over 50 µM. `Cc1cc2nc3c(=O)[nH]c(=O)nc-3n(C[C@H](O)[C@H](O)[C@H](O)COP(=O)(O)OP(=O)(O)OC[C@H]3O[C@@H](n4cnc5c(N)ncnc54)[C@H](O)[C@@H]3O)c2cc1C` [Flavin adenine dinucleotide disodium] gave a CC50 at 24 h of over 50 µM. `CCC(=O)c1ccc2c(c1)N(CCCN1CCN(CCO)CC1)c1ccccc1S2` [Carphenazine dimaleate] gave a CC50 at 24 h of 6.82 µM. With `O=C(O)CCCl` [3-Chloropropanoic acid] the CC50 at 24 h was over 90 µM. `C/C=C/c1ccc(OCC)c(O)c1` [trans-2-Ethoxy-5-(1-propenyl)phenol] showed a CC50 at 24 h of over 90 µM. Work on `Cc1nc2sccn2c(=O)c1CCN1CCC(=C(c2ccc(F)cc2)c2ccc(F)cc2)CC1` [Ritanserin] yielded a CC50 at 24 h of 28.7 µM. With `CCc1ccc(Br)cc1` [1-Bromo-4-ethylbenzene] the CC50 at 24 h was over 90 µM. With `COc1cc(C(C)=O)ccc1OCCCN1CCC(c2noc3cc(F)ccc23)CC1` [Iloperidone] the CC50 at 24 h was 15.2 µM. With `C=CCOc1c(Br)cc(C(C)(C)c2cc(Br)c(OCC=C)c(Br)c2)cc1Br` [Tetrabromobisphenol A diallyl ether] the CC50 at 24 h was over 50 µM. `Cc1cc(O)c2c(c1)O[C@@]1(C)CC[C@H]3C(C)(C)CCC[C@]34CO[C@@H]2[C@H]41` [Siccanin] showed a CC50 at 24 h of 15.9 µM. `O=C1CCCC(=O)O1` [Glutaric anhydride] gave a CC50 at 24 h of over 90 µM. Work on `COc1cccc(O)c1O` [3-Methoxycatechol] yielded a CC50 at 24 h of 70.4 µM. `NC(=O)[C@@H]1CCCN1C(=O)[C@H](Cc1cnc[nH]1)NC(=O)[C@@H]1CCC(=O)N1` [Protirelin] showed a CC50 at 24 h of over 50 µM. `CCN(CCCCOC(=O)c1ccc(OC)c(OC)c1)C(C)Cc1ccc(OC)cc1` (stereo not shown) [Mebeverine hydrochloride] gave a CC50 at 24 h of over 20 µM. Compound `CCCOc1nn(C(=O)NS(=O)(=O)c2ccccc2C(=O)OC)c(=O)n1C` [Propoxycarbazone-sodium] has a CC50 at 24 h of over 90 µM. In the case of `CCCCCCOc1ccc(C(=N)N(CCCC)CCCC)c2ccccc12` [Bunamidine hydrochloride], the CC50 at 24 h is reported as 5.23 µM. Work on `CC(=O)Oc1ccccc1C(N)=O` [Acetylsalicylamide] yielded a CC50 at 24 h of over 50 µM. In the case of `CN(C)CCCO[C@@H]1[C@H]2OC(C)(C)O[C@H]2O[C@@H]1[C@H](O)CO` [Amiprilose hydrochloride], the CC50 at 24 h is reported as over 50 µM. `FC(F)(F)C(F)(F)C(F)(F)C(F)(F)CCI` [1,1,1,2,2,3,3,4,4-Nonafluoro-6-iodohexane] showed a CC50 at 24 h of over 40 µM. For `Clc1cc(Cl)cc(Cl)c1` [1,3,5-Trichlorobenzene], the CC50 at 24 h was over 90 µM. `C=CCCCCCC` [1-Octene] showed a CC50 at 24 h of over 90 µM. In the case of `Cc1[nH]c(=O)n(C(C)(C)C)c(=O)c1Cl` [Terbacil], the CC50 at 24 h is reported as over 90 µM. For `O=Cc1ccccc1O` [Salicylaldehyde], the CC50 at 24 h was over 90 µM. With `NCC[C@H](O)C(=O)N[C@@H]1C[C@H](N)[C@@H](O[C@H]2O[C@H](CN)CC[C@H]2N)[C@H](O)[C@H]1O[C@H]1O[C@H](CO)[C@@H](O)[C@H](N)[C@H]1O` [Arbekacin sulfate] the CC50 at 24 h was over 50 µM. `CN1CC(O)C2=C/C(=N/NC(N)=O)C(=O)C=C21` (stereo not shown) [Carbazochrome] showed a CC50 at 24 h of over 50 µM. `Clc1ccc([C@@H]2C[C@H]3CC[C@@H]2N3)cn1` [(+)-Epibatidine hydrochloride] gave a CC50 at 24 h of over 90 µM. For `Nc1nnc(S)[nH]1` [5-Amino-1,2-dihydro-3H-1,2,4-triazole-3-thione], the CC50 at 24 h was over 90 µM. `OCCN1C[C@H](O)[C@@H](O)[C@H](O)[C@H]1CO` [Miglitol] gave a CC50 at 24 h of over 50 µM. In the case of `OC1CCCCCCCCCCC1` [Cyclododecanol], the CC50 at 24 h is reported as over 90 µM. `COC(=O)C1=C(C)NC(COC(N)=O)=C(C(=O)OC(C)C)C1c1cccc(Cl)c1Cl` (stereo not shown) [Lemildipine] gave a CC50 at 24 h of 25.8 µM. Compound `O=CO` [Formic acid, potassium salt] has a CC50 at 24 h of over 5 µM. `O=C(O)c1cc(=O)c2c(OCC(O)COc3cccc4oc(C(=O)O)cc(=O)c34)cccc2o1` [Cromolyn sodium] gave a CC50 at 24 h of over 50 µM. For `NCCCCCCN` [1,6-Hexanediamine], the CC50 at 24 h was over 90 µM. Work on `CC(C)C1=CC2=CC[C@@H]3[C@](C)(CCC[C@@]3(C)C(=O)O)[C@H]2CC1` [Sodium abietate] yielded a CC50 at 24 h of 74.3 µM. In the case of `O=C1Nc2ccc(Cl)cc2C(c2ccccc2)=NC1O` (stereo not shown) [Oxazepam], the CC50 at 24 h is reported as over 80 µM. `O=C1C(N(CO)C(=O)NCO)N(CO)C(=O)N1CO` (stereo not shown) [Diazolidinyl urea] gave a CC50 at 24 h of over 90 µM. Work on `COC(=O)N[C@H](C(=O)N[C@@H](Cc1ccccc1)[C@@H](O)CN(Cc1ccc(-c2ccccn2)cc1)NC(=O)[C@@H](NC(=O)OC)C(C)(C)C)C(C)(C)C` [Atazanavir] yielded a CC50 at 24 h of over 50 µM. For `CCC(C)(C)CC` [Pentane,3,3-dimethyl-], the CC50 at 24 h was over 100 µM. In the case of `Cc1cc(C(=O)NNCc2ccccc2)no1` [Isocarboxazid], the CC50 at 24 h is reported as over 20 µM. For `CCCN(CCc1cccs1)[C@H]1CCc2c(O)cccc2C1` [Rotigotine], the CC50 at 24 h was 40.9 µM. In the case of `N#Cc1ccc(CC(=O)c2cccc(C(F)(F)F)c2)cc1` [4-{2-Oxo-2-[3-(trifluoromethyl)phenyl]ethyl}benzonitrile], the CC50 at 24 h is reported as over 90 µM. `CN(C)c1ccc(N(C)C)cc1` [N,N,N',N'-Tetramethyl-p-phenylenediamine] showed a CC50 at 24 h of 58.6 µM. Work on `CCCCCCCCCC` [Decane] yielded a CC50 at 24 h of over 90 µM. Compound `Cc1ccc(O)c2ncccc12` [Tiliquinol] has a CC50 at 24 h of 4.67 µM. `COC(=O)[C@@H]1[C@H]2CC[C@@H](C[C@H]1OC(=O)c1ccccc1)N2C` [Allococaine hydrochloride] gave a CC50 at 24 h of over 50 µM. In the case of `C=CCCCCCCCCC(=O)OCCCC` [Butyl undec-10-enoate], the CC50 at 24 h is reported as over 90 µM. For `CNCCCN1c2ccccc2CCc2ccccc21` [Desipramine hydrochloride], the CC50 at 24 h was 7.08 µM.

Same assay, conditions: rat, gh3-tre-luc cells, AC50 (uM) modified / 1000, Tox21_110001=Tox21_110122; viability, 1 nM T3 present, 24 h
In the case of `CCCC(C)(COC(N)=O)COC(=O)NC(C)C` (stereo not shown) [Carisoprodol], the CC50 at 24 h is reported as over 50 µM.

Same assay, conditions: rat, gh3-tre-luc cells, AC50 (uM) modified / 1000, Tox21_110001=Tox21_111602; viability, 1 nM T3 present, 24 h
Compound `CC1CCC(C(C)C)C(OC(=O)c2ccccc2N)C1` (stereo not shown) [Menthyl anthranilate] has a CC50 at 24 h of 42.1 µM.

Same assay, conditions: rat, gh3-tre-luc cells, AC50 (uM) modified / 1000, Tox21_110001=Tox21_112860; viability, 1 nM T3 present, 24 h
`CCC(=O)O[C@](Cc1ccccc1)(c1ccccc1)[C@H](C)CN(C)C` [(2S,3R)-(+)-4-(Dimethylamino)-3-methyl-1,2-diphenyl-2-butanol propionate hydrochloride] showed a CC50 at 24 h of 30.1 µM.

Same assay, conditions: rat, gh3-tre-luc cells, AC50 (uM) modified / 1000, Tox21_110001=Tox21_200283; viability, 1 nM T3 present, 24 h
In the case of `O=NN(CCO)CCO` [N-Nitrosodiethanolamine], the CC50 at 24 h is reported as over 90 µM.

Same assay, conditions: rat, gh3-tre-luc cells, AC50 (uM) modified / 1000, Tox21_110001=Tox21_200561; viability, 1 nM T3 present, 24 h
`CC1CCC(C(C)C)C(OC(=O)c2ccccc2N)C1` (stereo not shown) [Menthyl anthranilate] gave a CC50 at 24 h of 27.5 µM.

Same assay, conditions: rat, gh3-tre-luc cells, AC50 (uM) modified / 1000, Tox21_110001=Tox21_200623; viability, 1 nM T3 present, 24 h
For `CCCC(C)(COC(N)=O)COC(=O)NC(C)C` (stereo not shown) [Carisoprodol], the CC50 at 24 h was over 90 µM.

Same assay, conditions: rat, gh3-tre-luc cells, AC50 (uM) modified / 1000, Tox21_110001=Tox21_200660; viability, 1 nM T3 present, 24 h
For `C[N+](C)(C)C` [Tetramethylammonium chloride], the CC50 at 24 h was over 90 µM.

Same assay, conditions: rat, gh3-tre-luc cells, AC50 (uM) modified / 1000, Tox21_110001=Tox21_201196; viability, 1 nM T3 present, 24 h
Work on `ClC(Cl)=C(Cl)Cl` [Tetrachloroethylene] yielded a CC50 at 24 h of over 90 µM.

Same assay, conditions: rat, gh3-tre-luc cells, AC50 (uM) modified / 1000, Tox21_110001=Tox21_201256; viability, 1 nM T3 present, 24 h
Compound `Cc1ccccc1N` [2-Methylaniline] has a CC50 at 24 h of over 90 µM.

Same assay, conditions: rat, gh3-tre-luc cells, AC50 (uM) modified / 1000, Tox21_110001=Tox21_201295; viability, 1 nM T3 present, 24 h
Compound `COC(=O)Nc1cccc(OC(=O)Nc2cccc(C)c2)c1` [Phenmedipham] has a CC50 at 24 h of over 90 µM.

Same assay, conditions: rat, gh3-tre-luc cells, AC50 (uM) modified / 1000, Tox21_110001=Tox21_301807; viability, 1 nM T3 present, 24 h
In the case of `CC1CN1P(=O)(N1CC1C)N1CC1C` (stereo not shown) [Metepa], the CC50 at 24 h is reported as over 90 µM.

Same assay, conditions: rat, gh3-tre-luc cells, AC50 (uM) modified / 1000, Tox21_110001=Tox21_302046; viability, 1 nM T3 present, 24 h
Compound `CCCCCCCCCCCCBr` [1-Bromododecane] has a CC50 at 24 h of over 90 µM.

Same assay, conditions: rat, gh3-tre-luc cells, AC50 (uM) modified / 1000, Tox21_110001=Tox21_302242; viability, 1 nM T3 present, 24 h
Work on `CCCCCCCCP(=O)(O)O` [Octylphosphonic acid] yielded a CC50 at 24 h of over 90 µM.

— publication PMC6792352, “Limited Chemical Structural Diversity Found to Modulate Thyroid Hormone Receptor in the Tox21 Chemical Library” (Environmental Health Perspectives, 2019)
